From publication PMC10235687, “Venetoclax is a potent hepsin inhibitor that reduces the metastatic and prothrombotic phenotypes of hepsin-expressing colorectal cancer cells” (Frontiers in Molecular Biosciences, 2023) come the findings set out here.

The test concerns the target T1, Hepsin (Homo sapiens, UniProt P05981).
T1 construct: gene HPN; Recombinant hepsin (R&D Systems)
Put plainly: Fluorogenic protease assay with recombinant hepsin ([…]) and BOC-Gln-Arg-Arg-AMC ([…]), pH […] h incubation with drug. It counts as biochemical.

The structures appear in SMILES notation.

T1 sequence (P05981 45-162 limits assumed): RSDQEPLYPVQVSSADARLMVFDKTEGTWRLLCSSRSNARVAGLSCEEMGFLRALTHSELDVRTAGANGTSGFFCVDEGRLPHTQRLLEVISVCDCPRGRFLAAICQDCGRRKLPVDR
T1 sequence (P05981 163-417 limits assumed): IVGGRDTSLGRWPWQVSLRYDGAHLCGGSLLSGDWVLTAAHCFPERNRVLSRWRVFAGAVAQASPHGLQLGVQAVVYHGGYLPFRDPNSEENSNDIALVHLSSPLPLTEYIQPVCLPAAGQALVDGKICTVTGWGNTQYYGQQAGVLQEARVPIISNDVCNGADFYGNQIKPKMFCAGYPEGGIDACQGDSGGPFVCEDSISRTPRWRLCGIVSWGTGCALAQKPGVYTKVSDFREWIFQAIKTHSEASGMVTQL

One may read the IC50 as the concentration that gives 50% inhibition. `CC1(C)CCC(CN2CCN(c3ccc(C(=O)NS(=O)(=O)c4ccc(NCC5CCOCC5)c([N+](=O)[O-])c4)c(Oc4cnc5[nH]ccc5c4)c3)CC2)=C(c2ccc(Cl)cc2)C1` [Venetoclax]: the concentration for half-maximal inhibition (IC50) turned out to be 480 nM.
